Assay: method code SF-AS, from DOI: 10.1016/0378-5173(79)90126-1
Settings: pH 3.5

Row | SMILES | logD
1 | C=CCC(CC=C)(C(=O)NC(N)=O)C(=O)OC | 1.37
2 | CNC(=O)NC(=O)C(C)(C(=O)OC)C1C=CCCC1 (stereo not given) | 1.75
3 | CNC(=O)NC(=O)C(C)(C(=O)OCOC)C1=CCCCC1 (stereo not given) | 1.8
4 | CCNC(=O)NC(=O)C(C)(C(=O)OC)C1=CCCCC1 (stereo not given) | 2.25
5 | CCC(C(=O)NC(N)=O)(C(=O)OC)c1ccccc1 (stereo not given) | 1.58

Other lines, results leading:

Row | logD | SMILES
6 | 1.45 | CCOC(=O)C(CC)(CC)C(=O)NC(N)=O
7 | 0.95 | CCC(CC)(C(=O)NC(N)=O)C(=O)OC
8 | 0.99 | CCC(CC)(C(=O)NC(N)=O)C(=O)OCC(=O)OC
9 | 2.74 | CCC(CC)(C(=O)NC(N)=O)C(=O)OCc1ccccc1
10 | 1.99 | CCC(CC)(C(=O)NC(N)=O)C(=O)OC(C)C
